Results from ChEMBL document CHEMBL1201862, “PubChem BioAssay data set” (2004).
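96-well plates; 48 h exposure; 5 concentrations. Endpoints by linear interpolation between flanking doses. Not reached: highest tested concentration assigned. GI50 marks 50% less growth.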 Active and inactive are the calls of the source. Cut-off read from the data, not from the text of the source: active = GI50 up to about 1.1 µM and inactive = higher.

How the values were obtained:
Test in all cases: NCI-60 cell line screen, 48 h
ACHN = tested on: ACHN
OVCAR-5 = tested on: OVCAR-5
SK-MEL-5 = tested on: SK-MEL-5
COLO 205 = tested on: COLO 205
HCC 2998 = tested on: HCC 2998
A498 = tested on: A498
HT-29 = tested on: HT-29
UACC-257 = tested on: UACC-257
RXF 393 = tested on: RXF 393
HCT-15 = tested on: HCT-15
NCI-H226 = tested on: NCI-H226
KM12 = tested on: KM12
MDA-MB-435 = tested on: MDA-MB-435
NCI-H522 = tested on: NCI-H522
OVCAR-8 = tested on: OVCAR-8
CAKI-1 = tested on: CAKI-1
SK-MEL-2 = tested on: SK-MEL-2
LOX IMVI = tested on: LOX IMVI
UACC-62 = tested on: UACC-62
NCI-H460 = tested on: NCI-H460

C/C(=N/c1[nH]c(=O)cc2c1C(=O)CC2)N(C)C
GI50 (ACHN): > 200 µM (inactive) | GI50 (OVCAR-5): > 200 µM (inactive) | GI50 (SK-MEL-5): > 200 µM (inactive) | GI50 (COLO 205): > 200 µM (inactive) | GI50 (HCC 2998): > 200 µM (inactive) | GI50 (A498): > 200 µM (inactive) | GI50 (HT-29): > 200 µM (inactive) | GI50 (UACC-257): > 200 µM (inactive) | GI50 (RXF 393): > 200 µM (inactive) | GI50 (HCT-15): > 200 µM | GI50 (NCI-H226): > 200 µM (inactive) | GI50 (KM12): > 200 µM (inactive) | GI50 (MDA-MB-435): > 200 µM (inactive) | GI50 (NCI-H522): > 200 µM (inactive) | GI50 (OVCAR-8): > 200 µM (inactive) | GI50 (CAKI-1): > 200 µM (inactive) | GI50 (SK-MEL-2): > 200 µM (inactive) | GI50 (LOX IMVI): > 200 µM (inactive) | GI50 (UACC-62): > 200 µM (inactive) | GI50 (NCI-H460): > 200 µM (inactive)

COc1ccc(CCNC2=CC(=O)c3ncccc3C2=O)cc1OC
GI50 (ACHN): 3.67 µM (inactive) | GI50 (OVCAR-5): 2.7 µM (inactive) | GI50 (SK-MEL-5): 0.184 µM (active) | GI50 (COLO 205): 1.79 µM (inactive) | GI50 (HCC 2998): 1.94 µM (inactive) | GI50 (A498): 1.82 µM (inactive) | GI50 (HT-29): 2.12 µM (inactive) | GI50 (UACC-257): 1.19 µM (inactive) | GI50 (RXF 393): 3.9 µM (inactive) | GI50 (HCT-15): 0.918 µM | GI50 (NCI-H226): 1.42 µM (inactive) | GI50 (KM12): 3.59 µM (inactive) | GI50 (MDA-MB-435): 0.471 µM (active) | GI50 (NCI-H522): 2.11 µM (inactive) | GI50 (OVCAR-8): 2.54 µM (inactive) | GI50 (CAKI-1): 1.71 µM (inactive) | GI50 (SK-MEL-2): 1.48 µM (inactive) | GI50 (LOX IMVI): 0.426 µM (active) | GI50 (UACC-62): 0.435 µM (active) | GI50 (NCI-H460): 0.394 µM (active)

CCOC(=O)c1cccc(/N=N/c2ncc(/C=C/C(=O)OC)[nH]2)c1
GI50 (ACHN): 22 µM (inactive) | GI50 (OVCAR-5): 55 µM (inactive) | GI50 (SK-MEL-5): 10.8 µM (inactive) | GI50 (COLO 205): 18.8 µM (inactive) | GI50 (HCC 2998): 17.9 µM (inactive) | GI50 (A498): 20.8 µM (inactive) | GI50 (HT-29): 23.5 µM (inactive) | GI50 (UACC-257): 16.2 µM (inactive) | GI50 (RXF 393): 29.9 µM (inactive) | GI50 (HCT-15): 9.59 µM | GI50 (NCI-H226): 36.1 µM (inactive) | GI50 (KM12): 23.2 µM (inactive) | GI50 (MDA-MB-435): 28 µM (inactive) | GI50 (NCI-H522): 15.7 µM (inactive) | GI50 (OVCAR-8): 17.3 µM (inactive) | GI50 (CAKI-1): 14.5 µM (inactive) | GI50 (SK-MEL-2): 27.4 µM (inactive) | GI50 (LOX IMVI): 15.3 µM (inactive) | GI50 (UACC-62): 21.5 µM (inactive) | GI50 (NCI-H460): 14.3 µM (inactive)

CS/C(=N\C#N)NC1CC(n2cc(C)c(=O)[nH]c2=O)OC1CO (stereo not given)
GI50 (ACHN): > 100 µM (inactive) | GI50 (OVCAR-5): > 100 µM (inactive) | GI50 (SK-MEL-5): > 100 µM (inactive) | GI50 (COLO 205): > 100 µM (inactive) | GI50 (HCC 2998): > 100 µM (inactive) | GI50 (A498): > 100 µM (inactive) | GI50 (HT-29): > 100 µM (inactive) | GI50 (UACC-257): > 100 µM (inactive) | GI50 (RXF 393): > 100 µM (inactive) | GI50 (HCT-15): > 100 µM | GI50 (NCI-H226): > 100 µM (inactive) | GI50 (KM12): > 100 µM (inactive) | GI50 (MDA-MB-435): > 100 µM (inactive) | GI50 (NCI-H522): > 100 µM (inactive) | GI50 (OVCAR-8): > 100 µM (inactive) | GI50 (CAKI-1): > 100 µM (inactive) | GI50 (SK-MEL-2): > 100 µM (inactive) | GI50 (LOX IMVI): > 100 µM (inactive) | GI50 (UACC-62): > 100 µM (inactive) | GI50 (NCI-H460): > 100 µM (inactive)

O=C([O-])C(O)C(O)C(O)C(O)C(=O)O.[K+] (stereo not given)
GI50 (ACHN): > 100 µM (inactive) | GI50 (OVCAR-5): > 100 µM (inactive) | GI50 (SK-MEL-5): > 100 µM (inactive) | GI50 (COLO 205): > 100 µM (inactive) | GI50 (HCC 2998): > 100 µM (inactive) | GI50 (A498): > 100 µM (inactive) | GI50 (HT-29): > 100 µM (inactive) | GI50 (UACC-257): > 100 µM (inactive) | GI50 (RXF 393): > 100 µM (inactive) | GI50 (HCT-15): > 100 µM | GI50 (NCI-H226): > 100 µM (inactive) | GI50 (KM12): > 100 µM (inactive) | GI50 (MDA-MB-435): > 100 µM (inactive) | GI50 (NCI-H522): > 100 µM (inactive) | GI50 (OVCAR-8): > 100 µM (inactive) | GI50 (CAKI-1): > 100 µM (inactive) | GI50 (SK-MEL-2): > 100 µM (inactive) | GI50 (LOX IMVI): > 100 µM (inactive) | GI50 (UACC-62): > 100 µM (inactive) | GI50 (NCI-H460): > 100 µM (inactive)

COc1cc(/C=C2/C(=O)N(C(=O)c3ccccc3O)N=C2C)ccc1O
GI50 (ACHN): 0.123 µM (active) | GI50 (OVCAR-5): 6.46 µM (inactive) | GI50 (SK-MEL-5): 0.274 µM (active) | GI50 (COLO 205): 18.9 µM (inactive) | GI50 (HCC 2998): 4.65 µM (inactive) | GI50 (A498): 0.0771 µM (active) | GI50 (HT-29): 9.55 µM (inactive) | GI50 (UACC-257): 0.838 µM (active) | GI50 (RXF 393): 0.0628 µM (active) | GI50 (HCT-15): 0.406 µM | GI50 (NCI-H226): 0.701 µM (active) | GI50 (KM12): 0.202 µM (active) | GI50 (MDA-MB-435): 0.409 µM (active) | GI50 (NCI-H522): 0.593 µM (active) | GI50 (OVCAR-8): 0.352 µM (active) | GI50 (CAKI-1): 0.217 µM (active) | GI50 (SK-MEL-2): 1.01 µM (active) | GI50 (LOX IMVI): 0.465 µM (active) | GI50 (UACC-62): 0.0518 µM (active) | GI50 (NCI-H460): 0.161 µM (active)
